According to US9994830B2, “Methods for modulating cyclic nucleotide-mediated signaling in cardiac myocytes and compositions” (The United States of America as Represented by the …, priority 2014, dated 2018):

How the values were obtained:
PLB = assay: cAMP-dependent phosphorylation of endogenous PLB in human myocardial membranes; type: biochemical; settings: 0.1 μM cAMP; cilostamide 1 μM or rolipram 10 μM; human left ventricular microsomes
Procedure: (§1) FIG. 7 a-f. cAMP, PKA, and PDE3-inhibition increase SERCA2 activity and Ca^2+ uptake. A. After incubation of SR fractions (20 μg) in the absence or presence of the indicated concentrations of ATP and/or cAMP, without or with cilostamide or rolipram, endogenous PLB, phosphorylated PLB, and ρ-actin were detected after SDS-PAGE and immunoblotting. Data are representative of three experiments. In these and other Western blots, PLB is predominantly monomeric, most likely due to the heating of samples, prior to electrophoresis, under reducing conditions (buffer containing β-mercatoethanol, DTT, and SDS). B. Bar graph summarizing pSer16PLB/PLB total ratios. *P<0.01 vs. control (n=3 independent experiments). C. PDE activity in human cardiac SR fractions, expressed as specific activity (pmol cAMP hydrolyzed/min/mg). Results are presented as mean+/−SEM (n=3 preparations). PDE3 activity was determined as the cilostamide-sensitive fraction, and PDE4 activity as the rolipram-sensitive fraction. […] D. After incubation of SR fractions without or with the indicated concentrations of cAMP (0-10 μM), ^45Ca^2+ uptake was measured in the presence of 0.5 μM free Ca^2+. Results are presented as % increase due to cAMP, with basal Ca^2+ uptake (9.4+/−0.8 nmol/mg/min, n=3) taken as 100%. […]

SR vesicles = assay: 45Ca2+ uptake in SR vesicles from human myocardium; type: biochemical; settings: cAMP 3 μM, cilostamide 1 μM; SR fractions
Procedure: as §1, with “B. Bar graph summarizing pSer16PLB/PLB total ratios. *P<0.01 vs. control (n=3 independent experiments). C.” left out, “Results are presented as mean+/−SEM (n=3 preparations).” left out, “Ca^2+.” for “Ca^2+. Results are presented as % increase due to cAMP, with basal Ca^2+ uptake (9.4+/−0.8 nmol/mg/min, n=3) taken as 100%.”
Oxalate-dependent Ca^2+ uptake was quantified as described previously (17). […] After washing four times with 4 ml buffer containing 140 mM KCl, 10 mM NaCl, 2 mM MgCl2, 1 mM CaCl2 and 50 mM imidazole-HCl, (pH 7.0), radioactivity retained on the filters was quantified by liquid scintillation counting. Free [Ca^2+] was calculated using a program obtained at http://www.stanford.edu/˜cpatton/webmaxc/webmaxcS.htm.

[1] = test system: neonatal rat ventricular myocytes; assay: Hypertrophy of neonatal rat ventricular myocytes (PDE3 inhibitor treatment or transfection with dominant-negative constructs, with or without norepinephrine); type: cell-based; settings: neonatal rat ventricular myocytes; treatment or transfection alone
Excerpt: FIG. 5. Anti-hypertrophic actions of PDE3A1-selective targeting in neonatal rat ventricular myocytes.
In contrast, expression of the PDE3A1 dominant negative has no pro-hypertrophic effect, and actually blocks the hypertrophic responses to norepinephrine.
In neonatal rat ventricular myocytes, conventional PDE3 inhibition promotes cellular hypertrophy, which may be associated with adverse consequences in heart failure. We questioned what effect PDE3A1-selective inhibition would have. […] The F1004A substitution is a change in the amino acid sequence of PDE3A1 at amino acid position 1004 from a phenylalanine to an alanine. We transfected neonatal rat ventricular myocytes with this dominant-negative construct to competitively block the protein-protein interactions that localize PDE3A1 to specific intracellular microdomains. […] To our knowledge, this is the first direct evidence that conventional PDE3 inhibition and isoform-selective targeting have different effects in cardiac myocytes, and that some of the adverse consequences of nonselective PDE3 inhibition may be averted by isoform-selective targeting involving protein-protein interactions.

Row | SMILES | phosphorylation of PLB at S16 by endogenous PKA (PLB) | effect on cAMP-increased ATP-dependent, oxalate-supported Ca2+ uptake (SR vesicles) | cellular hypertrophy [1]
1 | CN(C(=O)CCCOc1ccc2[nH]c(=O)ccc2c1)C1CCCCC1 [cilostamide] | stimulated | potentiated | promote myocyte hypertrophy
2 | COc1ccc(C2CNC(=O)C2)cc1OC1CCCC1 (stereo not shown) [rolipram] | no effect | – | –
